Laboratory results as given in PubChem BioAssay (NCI).
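Grown in 96-well plates, cells were treated for 48 hours with each compound at five concentrations. Insufficient inhibition: endpoint recorded as highest concentration tested. GI50 marks 50% less growth. The concentration for full growth arrest is given as TGI.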

These compounds were tested on PC-3 prostate (assay: NCI tumour cell line growth inhibition, 48 h).

| SMILES | GI50 | TGI |
| --- | --- | --- |
| C=C(CN1CCN(c2ccc(Cl)cc2F)CC1)c1ccc(C(=O)Nc2ccccc2N)cc1 | 1.55 µM | > 100 µM |
| O=C(Nc1ccccc1)NS(=O)(=O)c1ccc(-n2nc3c(c2-c2cccs2)Cc2ccccc2-3)cc1 | 10.4 µM | > 100 µM |
| CCCCOC(=O)C1OC(O[C@H]2CCC3(C)C(CCC4(C)C3CC=C3C5CC(C)(C)CCC5(C(=O)O)CC[C@]34C)C2(C)C)C(OC2OC(CO)C(O)C(O)C2O)C(OC2OC(CO)C(O)C(O)C2O)C1O (stereo partly specified) | 34.7 µM | > 100 µM |
| O=C1C=C(Cl)C(=O)C(c2ccc(Cl)cc2)=C1 |  | 29.3 µM |
| Cn1cc(C2=C(c3cn(C)c4ncccc34)C(=O)NC2=O)c2ccccc21 | 8.27 µM | > 25 µM |
| COc1cc(/C=N/NC(=O)c2ccc(C(F)(F)F)nc2Nc2ccc(Cl)cc2C)ccc1O | 1.89 µM | 9.87 µM |
| COc1ccc(C(=O)Cn2c(C(=O)c3ccccc3)nc(-c3ccc(OC)cc3)c2-c2ccc(OC)cc2)cc1 | > 100 µM | > 100 µM |
| CCCCCN(CCCCC)CCCNc1c2c(nc3ccc(Cl)cc13)CCCC2 | 2.46 µM | 8.9 µM |
| Cn1c2ccccc2c2c(Nc3ccccc3)c3ccccc3nc21 | 11.7 µM | 48.1 µM |

These compounds were tested on NCI-H460 lung (assay: NCI tumour cell line growth inhibition, 48 h).

| SMILES | TGI | GI50 |
| --- | --- | --- |
| CCN(CCO)CC1CCCC2CCCCC21 (stereo unspecified) | > 100 µM |  |
| CCCCCCCCCCCOc1ccc(C(=O)C(=O)c2ccc(OCCCCCCCCCCC)c(OCCCCCCCCCCC)c2)cc1OCCCCCCCCCCC | > 100 µM |  |
| CCOC(=O)C1=C(C)NC(=S)NC1c1ccccc1 (stereo unspecified) | > 100 µM |  |
| O=C(/C=C/c1ccccc1)NC1C=Nc2ccc(Cl)cc2NC1=O (stereo unspecified) | 51 µM |  |
| COC1CCC2C(NS(=O)(=O)c3ccc(C)cc3)CCCC2O1 (stereo unspecified) (tested in a mixture with another compound) | > 34.5 µM |  |
| CC(C)C/C(CC(=O)CCC(=O)Nc1ccccc1[N+](=O)[O-])=N\NC(=O)c1cc2ccccc2cc1O | > 100 µM |  |
| O=C(O)c1ccccc1[Se][Se]c1ccccc1C(=O)O | > 100 µM |  |
| CCCCC(=O)OCC(=O)[C@]1(O)Cc2c(O)c3c(c(O)c2[C@@H](OC2CC(NC(=O)C(F)(F)F)C(O)C(C)O2)C1)C(=O)c1c(OC)cccc1C3=O (stereo partly specified) | 2.48 µM |  |
| O=C(O)CCc1coc2ccc(O)cc12 | > 100 µM |  |
| C[C@]12CC[C@H](O)CC1=CC[C@@H]1C2CC[C@]2(C)C(=O)N(N)C(=O)CC12 (stereo partly specified) | > 100 µM |  |
| Clc1cc2nsnc2c(Cl)n1 | > 100 µM |  |
| N#CC1C(C#N)C2(c3ccccc3)C(c3ccccc3)=NN(c3ccccc3)CC12 (stereo unspecified) | > 100 µM |  |
| COc1cc(Cc2cnc(/N=C3\C(=O)N(CN4CCN(c5c(F)cc6c(=O)c(C(=O)O)cn(C7CC7)c6c5OC)CC4C)c4ccc(F)cc43)nc2N)cc(OC)c1OC (stereo unspecified) | > 100 µM | 18.9 µM |
| C=C(CN1CCN(c2ccc(Cl)cc2F)CC1)c1ccc(C(=O)Nc2ccccc2N)cc1 | > 100 µM | 3.23 µM |
| CC(C)=CC(=O)C1c2cccc(O)c2C(=O)c2c(O)cc(C)cc21 (stereo unspecified) | 10.1 µM |  |
| Cc1cccc2c(=O)cc(-c3ccccc3)[nH]c12 | > 100 µM |  |
| COC(CN1C(=O)c2cccc3cccc(c23)C1=O)OC | > 100 µM |  |
| O=C(Nc1ccccc1)NS(=O)(=O)c1ccc(-n2nc3c(c2-c2cccs2)Cc2ccccc2-3)cc1 | > 100 µM | 18.9 µM |
| CCCCOC(=O)C1OC(O[C@H]2CCC3(C)C(CCC4(C)C3CC=C3C5CC(C)(C)CCC5(C(=O)O)CC[C@]34C)C2(C)C)C(OC2OC(CO)C(O)C(O)C2O)C(OC2OC(CO)C(O)C(O)C2O)C1O (stereo partly specified) | > 100 µM | 33.3 µM |

| SMILES | TGI | GI50 |
| --- | --- | --- |
| Cc1nc2ccccc2c(=O)n1-c1ccccc1I | > 100 µM |  |
| O=C1C=C(Cl)C(=O)C(c2ccc(Cl)cc2)=C1 | > 100 µM |  |
| CCOc1ccc(NC(=O)C(=O)CC(=O)c2c[n+](=O)c3cc(C)c(C)cc3n2[O-])cc1 | > 100 µM |  |
| CN1C(=O)C(C)(C)C2(SC(C)(C)C2(C)C)N(C)C1=S (stereo unspecified) | > 100 µM |  |
| Cn1cc(C2=C(c3cn(C)c4ncccc34)C(=O)NC2=O)c2ccccc21 | > 25 µM | 9.96 µM |
| CC(=O)NNc1nc(C)c(C(=O)NNC(=O)C(=O)Nc2ccc(Cl)cc2)s1 | > 100 µM |  |
| CN/N=C(/Cc1occc(=O)c1O)C(=O)Nc1ccccc1C | > 100 µM |  |
| COc1cc(/C=N/NC(=O)c2ccc(C(F)(F)F)nc2Nc2ccc(Cl)cc2C)ccc1O | 11.7 µM | 2.65 µM |
| COc1ccc(C(=O)Cn2c(C(=O)c3ccccc3)nc(-c3ccc(OC)cc3)c2-c2ccc(OC)cc2)cc1 | > 100 µM | > 100 µM |
| CC1=C(C(=O)NCc2ccccc2)C(/C=C/c2ccccc2)C(C(=O)NCc2ccccc2)=C(C)N1 | > 100 µM |  |
| N#CCCN(CCC#N)c1ccc(/C=C2\N=C(c3cc([N+](=O)[O-])ccc3Cl)OC2=O)cc1 | > 100 µM |  |
| CC1(c2ccc(F)cc2)C(C#N)C(=O)NC(=O)C1C#N (stereo unspecified) | > 100 µM |  |
| Cc1cc(C)nc(NS(=O)(=O)c2ccc(NC(=O)c3ccc(Cl)c4c(Nc5ccc(S(=O)(=O)Nc6nc(C)cc(C)n6)cc5)c5ccccc5nc34)cc2)n1 | > 100 µM |  |
| COc1ccc2c3c1C(=O)CCCC3CO2 (stereo unspecified) | > 100 µM |  |
| N#CC(c1ccc(Cl)cc1)c1cccc(C(C#N)c2ccc(Cl)cc2)n1 (stereo unspecified) | > 100 µM |  |
| CCCCCN(CCCCC)CCCNc1c2c(nc3ccc(Cl)cc13)CCCC2 | 6.9 µM | 2.28 µM |
| Cn1c2ccccc2c2c(Nc3ccccc3)c3ccccc3nc21 | 41.1 µM | 17.5 µM |
| O=S1(=O)c2ccccc2NC(c2ccc3ccccc3c2)CC1c1ccccc1F (stereo unspecified) | > 100 µM |  |

What follows are compounds tested on LOX IMVI melanoma (assay: NCI tumour cell line growth inhibition, 48 h).

| SMILES | TGI | GI50 |
| --- | --- | --- |
| NNC(=O)Nc1cccnc1 | > 100 µM |  |
| CCCCCCCCCCCOc1ccc(C(=O)C(=O)c2ccc(OCCCCCCCCCCC)c(OCCCCCCCCCCC)c2)cc1OCCCCCCCCCCC | > 100 µM |  |
| CCOC(=O)C1=C(C)NC(=S)NC1c1ccccc1 (stereo unspecified) | > 100 µM |  |
| O=C(/C=C/c1ccccc1)NC1C=Nc2ccc(Cl)cc2NC1=O (stereo unspecified) | 55.9 µM |  |
| COC1CCC2C(NS(=O)(=O)c3ccc(C)cc3)CCCC2O1 (stereo unspecified) (tested in a mixture with another compound) | 13 µM |  |
| CC(C)C/C(CC(=O)CCC(=O)Nc1ccccc1[N+](=O)[O-])=N\NC(=O)c1cc2ccccc2cc1O | 79 µM |  |
| O=C(O)c1ccccc1[Se][Se]c1ccccc1C(=O)O | 76.1 µM |  |
| CCCCC(=O)OCC(=O)[C@]1(O)Cc2c(O)c3c(c(O)c2[C@@H](OC2CC(NC(=O)C(F)(F)F)C(O)C(C)O2)C1)C(=O)c1c(OC)cccc1C3=O (stereo partly specified) | 1.37 µM |  |
| O=C(O)CCc1coc2ccc(O)cc12 | > 100 µM |  |
| C[C@]12CC[C@H](O)CC1=CC[C@@H]1C2CC[C@]2(C)C(=O)N(N)C(=O)CC12 (stereo partly specified) | > 100 µM |  |
| Clc1cc2nsnc2c(Cl)n1 | > 100 µM |  |
| N#CC1C(C#N)C2(c3ccccc3)C(c3ccccc3)=NN(c3ccccc3)CC12 (stereo unspecified) | > 100 µM |  |
| COc1cc(Cc2cnc(/N=C3\C(=O)N(CN4CCN(c5c(F)cc6c(=O)c(C(=O)O)cn(C7CC7)c6c5OC)CC4C)c4ccc(F)cc43)nc2N)cc(OC)c1OC (stereo unspecified) | 4.74 µM | 2.38 µM |
| C=C(CN1CCN(c2ccc(Cl)cc2F)CC1)c1ccc(C(=O)Nc2ccccc2N)cc1 | 8.43 µM | 3 µM |
| CC(C)=CC(=O)C1c2cccc(O)c2C(=O)c2c(O)cc(C)cc21 (stereo unspecified) | 3.74 µM |  |
| Cc1cccc2c(=O)cc(-c3ccccc3)[nH]c12 | > 100 µM |  |

| SMILES | TGI | GI50 |
| --- | --- | --- |
| COC(CN1C(=O)c2cccc3cccc(c23)C1=O)OC | > 100 µM |  |
| O=C(Nc1ccccc1)NS(=O)(=O)c1ccc(-n2nc3c(c2-c2cccs2)Cc2ccccc2-3)cc1 | 33.6 µM | 12 µM |
| CCCCOC(=O)C1OC(O[C@H]2CCC3(C)C(CCC4(C)C3CC=C3C5CC(C)(C)CCC5(C(=O)O)CC[C@]34C)C2(C)C)C(OC2OC(CO)C(O)C(O)C2O)C(OC2OC(CO)C(O)C(O)C2O)C1O (stereo partly specified) | 31.8 µM | 18 µM |
| O=C1C=C(Cl)C(=O)C(c2ccc(Cl)cc2)=C1 | 35.7 µM |  |
| CCOc1ccc(NC(=O)C(=O)CC(=O)c2c[n+](=O)c3cc(C)c(C)cc3n2[O-])cc1 | > 100 µM |  |
| Cn1cc(C2=C(c3cn(C)c4ncccc34)C(=O)NC2=O)c2ccccc21 | > 25 µM | 6.97 µM |
| CC(=O)NNc1nc(C)c(C(=O)NNC(=O)C(=O)Nc2ccc(Cl)cc2)s1 | > 100 µM |  |
| CN/N=C(/Cc1occc(=O)c1O)C(=O)Nc1ccccc1C | > 100 µM |  |
| COc1cc(/C=N/NC(=O)c2ccc(C(F)(F)F)nc2Nc2ccc(Cl)cc2C)ccc1O | 11.5 µM | 1.36 µM |
| O=C(N/C(=C\c1ccc(/C=C(\NC(=O)c2ccccc2)c2nc3cc([N+](=O)[O-])ccc3[nH]2)cc1)c1nc2cc([N+](=O)[O-])ccc2[nH]1)c1ccccc1 | > 100 µM |  |
| COc1ccc(C(=O)Cn2c(C(=O)c3ccccc3)nc(-c3ccc(OC)cc3)c2-c2ccc(OC)cc2)cc1 | > 100 µM | > 100 µM |
| CC1=C(C(=O)NCc2ccccc2)C(/C=C/c2ccccc2)C(C(=O)NCc2ccccc2)=C(C)N1 | > 100 µM |  |
| N#CCCN(CCC#N)c1ccc(/C=C2\N=C(c3cc([N+](=O)[O-])ccc3Cl)OC2=O)cc1 | 46.5 µM |  |
| CC1(c2ccc(F)cc2)C(C#N)C(=O)NC(=O)C1C#N (stereo unspecified) | > 100 µM |  |
| Cc1cc(C)nc(NS(=O)(=O)c2ccc(NC(=O)c3ccc(Cl)c4c(Nc5ccc(S(=O)(=O)Nc6nc(C)cc(C)n6)cc5)c5ccccc5nc34)cc2)n1 | > 100 µM |  |
